# Square brackets hold non-standard residues; d marks the D form. Peptide text beside a SMILES is read from it. pGlu = O=C1CC[CH](C(=O)O)N1
# Experiment: FBMN analysis of short peptides in small intestine contents and serum after oral DHG
# Details: for time detected in serum (FBMN): time points 0.5-4 h after oral DHG; for Peptide signal (feature intensity) in the small intestine, 30 min / Peptide signal (feature intensity) in the small intestine, 60 min / Peptide signal (feature intensity) in the small intestine, 120 min / Peptide signal (feature intensity) in the small intestine, 240 min: small intestine contents, C57 mice, FBMN feature intensity, peptides smaller than 690 Da; for Peptide signal (feature intensity) in the small intestine, 30 min: 30 min after oral DHG; for Peptide signal (feature intensity) in the small intestine, 60 min: 60 min after oral DHG; for Peptide signal (feature intensity) in the small intestine, 120 min: 120 min after oral DHG; for Peptide signal (feature intensity) in the small intestine, 240 min: 240 min after oral DHG
time detected in serum (FBMN),"Peptide signal (feature intensity) in the small intestine, 30 min","Peptide signal (feature intensity) in the small intestine, 60 min","Peptide signal (feature intensity) in the small intestine, 120 min","Peptide signal (feature intensity) in the small intestine, 240 min",SMILES
only detected in the first hour,0.00E+00,1.13E+07,0.00E+00,5.69E+06,O=C1CCC(C(=O)NC(Cc2ccccc2)C(=O)O)N1 (stereo not shown) [PyroGlu-Phe]
,2.94E+06,3.78E+06,0.00E+00,0.00E+00,CC(C)CC(NC(=O)C(N)C(C)C)C(=O)O (stereo not drawn) [Val-Leu] (H-Val-Leu-OH; configuration not given here)
,7.93E+06,7.66E+06,0.00E+00,0.00E+00,CC[C@H](C)[C@H](N)C(=O)N[C@@H](CC(N)=O)C(=O)O [Ile-Asn] (H-Ile-Asn-OH)
,4.70E+06,5.95E+06,0.00E+00,0.00E+00,CSCCC(NC(=O)C1CCC(=O)N1)C(=O)O (stereo not shown) [PyroGlu-Met] ([pGlu]-Met-OH; configuration not given here)
,0.00E+00,4.18E+07,0.00E+00,4.47E+07,CC(C)C[C@H](NC(=O)CN)C(=O)O [Gly-Leu]
,0.00E+00,0.00E+00,0.00E+00,6.50E+05,N[C@@H](Cc1c[nH]c2ccccc12)C(=O)NCC(=O)O [Trp-gly] (H-Trp-Gly-OH)
,0.00E+00,4.45E+06,0.00E+00,8.43E+06,CC(C)C[C@H](NC(=O)[C@@H](N)[C@@H](C)O)C(=O)O [Thr-Leu] (H-Thr-Leu-OH)
,5.68E+06,2.91E+06,7.39E+06,1.44E+07,CC(C)C[C@H](NC(=O)[C@@H](N)CC(=O)O)C(=O)O [Asp-Leu] (H-Asp-Leu-OH)
,2.40E+06,6.61E+05,0.00E+00,4.40E+06,CC(C)C[C@H](NC(=O)CNC(=O)[C@@H](N)CC(C)C)C(=O)O [Leu-Gly-Leu] (H-Leu-Gly-Leu-OH)
,0.00E+00,2.55E+07,0.00E+00,1.33E+07,O=C1CCC(C(=O)NC(Cc2ccc(O)cc2)C(=O)O)N1 (stereo not shown) [PyroGlu-Tyr] ([pGlu]-Tyr-OH; configuration not given here)
,3.33E+05,2.00E+05,0.00E+00,0.00E+00,CC[C@H](C)[C@H](N)C(=O)N[C@H](C(=O)N[C@@H](CCCCN)C(=O)O)[C@@H](C)CC [Ile-Ile-Lys] (H-Ile-Ile-Lys-OH)
,3.95E+05,0.00E+00,6.03E+05,4.57E+05,CC(C)[C@@H]1NC(=O)[C@@H]2CCCN2C1=O [cyclo(L-Val-L-Pro)]
,0.00E+00,1.71E+05,3.17E+05,2.35E+05,NC(=O)CC[C@H](NC(=O)[C@@H](N)Cc1ccccc1)C(=O)O [Phe-Gln]
,0.00E+00,0.00E+00,1.12E+05,2.58E+05,CSCC[C@H](N)C(=O)O [Methionine]
,1.01E+05,0.00E+00,8.22E+05,4.33E+05,CC(C)CC1NC(=O)C(Cc2ccccc2)NC1=O (stereo not shown) [cyclo(Phe-Leu)]
,4.05E+04,6.53E+03,0.00E+00,0.00E+00,C[C@@H](O)[C@H](NC(=O)[C@@H](N)Cc1ccccc1)C(=O)O [Phe-Thr]
,0.00E+00,1.05E+05,8.61E+05,7.83E+05,CC[C@H](C)[C@H](NC(=O)[C@@H](N)Cc1ccccc1)C(=O)N[C@@H](CCCCN)C(=O)O [Phe-Ile-Lys] (H-Phe-Ile-Lys-OH)
,5.47E+07,1.43E+07,0.00E+00,0.00E+00,CC(C)CC(NC(=O)C1CCCN1)C(=O)O (stereo not drawn) [Pro-Leu] (H-Pro-Leu-OH; configuration not given here)
,0.00E+00,0.00E+00,4.03E+05,3.59E+05,CSCCC(N)C(=O)NC(CC(C)C)C(=O)O (stereo not drawn) [Met-Leu] (H-Met-Leu-OH; configuration not given here)
,0.00E+00,5.39E+06,0.00E+00,2.06E+07,NCC(=O)N[C@@H](Cc1ccc(O)cc1)C(=O)O [Gly-Tyr] (H-Gly-Tyr-OH)
,8.94E+05,6.69E+05,1.60E+06,4.59E+06,CC(C)C[C@H](NC(=O)[C@@H](N)CO)C(=O)N[C@@H](CCCCN)C(=O)O [Ser-Leu-Lys] (H-Ser-Leu-Lys-OH)
,6.78E+05,4.16E+05,0.00E+00,1.73E+06,N[C@@H](CCC(=O)O)C(=O)N[C@@H](Cc1ccc(O)cc1)C(=O)O [Glu-Tyr] (H-Glu-Tyr-OH)
,0.00E+00,2.02E+05,0.00E+00,4.35E+06,CC[C@H](C)[C@H](NC(=O)[C@@H](N)C(C)C)C(=O)N[C@@H](CCCCN)C(=O)O [Val-Ile-Lys] (H-Val-Ile-Lys-OH)
,4.20E+05,8.21E+05,0.00E+00,0.00E+00,CC[C@H](C)[C@H](N)C(=O)N[C@@H](Cc1ccc(O)cc1)C(=O)O [Ile-Tyr] (H-Ile-Tyr-OH)
only detected in the first hour,3.76E+07,6.08E+07,1.22E+08,1.29E+08,N[C@@H](CC(=O)O)C(=O)N[C@@H](Cc1ccccc1)C(=O)O [Asp-Phe] (H-Asp-Phe-OH)
,6.40E+05,1.66E+05,0.00E+00,0.00E+00,Cc1cn([C@H]2C[C@H](O)[C@@H](CO)O2)c(=O)[nH]c1=O [Thymidine]
,6.52E+05,9.44E+05,8.51E+05,0.00E+00,CC(C)CC(N)C(=O)NC(Cc1ccccc1)C(=O)O (stereo not drawn) [Leu-Phe] (H-Leu-Phe-OH; configuration not given here)
,1.17E+07,1.01E+07,0.00E+00,0.00E+00,CC[C@H](C)[C@H](NC(=O)CN)C(=O)O [Gly-Ile] (H-Gly-Ile-OH)
,0.00E+00,3.54E+06,0.00E+00,2.70E+06,CC(C)[C@H](NC(=O)CN)C(=O)O [Gly-Val] (H-Gly-Val-OH)
